Earlier results as cited in paper PMC5695669 (Journal of medicinal chemistry, 2012).

Columns and labels:
[1] = tested on: guinea pig ileum longitudinal muscle-myenteric plexus; conditions: read-out: GPI (IC50); functional bioactivity, ±SEM; ref [3]
rMor (μ opioid receptor) = rMor (μ opioid receptor) (Rattus norvegicus, UniProt P33535); conditions: [3H]DAMGO, ±SEM, ref [3]
Chain of rMor (μ opioid receptor) (P33535 whole entry): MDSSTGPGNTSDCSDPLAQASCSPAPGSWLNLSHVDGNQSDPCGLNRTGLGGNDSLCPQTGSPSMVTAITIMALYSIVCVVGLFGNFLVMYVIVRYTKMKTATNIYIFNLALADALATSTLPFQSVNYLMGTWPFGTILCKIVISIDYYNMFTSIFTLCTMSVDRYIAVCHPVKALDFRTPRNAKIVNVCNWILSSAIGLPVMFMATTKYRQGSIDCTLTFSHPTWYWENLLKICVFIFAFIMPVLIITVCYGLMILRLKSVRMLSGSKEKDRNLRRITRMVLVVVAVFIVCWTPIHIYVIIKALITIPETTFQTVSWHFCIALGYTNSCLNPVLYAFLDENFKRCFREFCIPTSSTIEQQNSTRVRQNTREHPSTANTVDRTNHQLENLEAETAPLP

For “H-Tyr-Pro-Phe-Phe-NH2 (H-YPFF-NH2) [EM-2]”, the IC50 [1] is listed as 15 ± 2 nM and the Ki (rMor (μ opioid receptor)) is listed as 9.6 ± 0.98 nM.
